From ChEMBL document CHEMBL3301472, “MMV Malaria Box HIV and cytotoxicity screening”

Experiments:
[1] = system: Human immunodeficiency virus 1; test: MMV: HIV CXCR4-tropic env NL4-3 pseudovirus assay produces luciferase signal in lieu of replicating viral particles Day 3 pi, U87-CD4-CXCR4, % inhibition at 5 mM compound; type: functional; parameters: dose or concentration left out as unconfirmed; settings: Human immunodeficiency virus 1, NL4-3, U87.CD4.CXCR4, 72 h
[2] = MMV: MTT Cytotoxicity Assay Day 3 pi, U87-CD4-CCR5 cells, % cell death @ 5mM compound; type: toxicity, cell-based; settings: human, u87-cd4-ccr5, 5000 µM
[3] = MMV: MTT Cytotoxicity Assay Day 3 pi, U87-CD4-CXCR4 cells, % cell death @ 5mM compound; type: toxicity, cell-based; settings: human, u87-cd4-cxcr4, 5000 µM
[4] = MMV: MTT Cytotoxicity Assay Day 7 pi of Assay #6 (compound washed out Day 1 pi), U87-CD4-CCR5 cells, % cell death @ 5mM compound; type: toxicity, cell-based; settings: human, u87-cd4-ccr5, 5000 µM
[5] = MMV: MTT Cytotoxicity Assay Day 7 pi of Assay #7 (compound washed out Day 1 pi), U87-CD4-CXCR4 cells, % cell death @ 5mM compound; type: toxicity, cell-based; settings: human, u87-cd4-cxcr4, 5000 µM
[6] = MMV: MTT Cytotoxicity Assay Day 7 pi of Assay #10 (NO washout), U87-CD4-CCR5 cells, % cell death @ 5mM compound; type: toxicity, cell-based; settings: human, u87-cd4-ccr5, 5000 µM
[7] = MMV: MTT Cytotoxicity Assay Day 7 pi of Assay #11 (NO washout), U87-CD4-CXCR4 cells, % cell death @ 5mM compound; type: toxicity, cell-based; settings: human, u87-cd4-cxcr4, 5000 µM
[8] = system: Human immunodeficiency virus 1; test: MMV: HIV JRFL CCR5-tropic replication-competent virus, virus & compound washed out Day 1 pi, P24 ELISA Day 7 pi, U87-CD4-CCR5, % inhibition at 5 mM compound; type: functional; parameters: dose or concentration left out as unconfirmed; settings: Human immunodeficiency virus 1, JR-FL

SMILES | inhibition [1] | % Cell Death [2] | % Cell Death [3] | % Cell Death [4] | % Cell Death [5] | % Cell Death [6] | % Cell Death [7] | inhibition [8]
OC(CNCC1CCCO1)Cn1c2ccc(Cl)cc2c2cc(Cl)ccc21 (stereo not drawn) | 0% | 11 | 15 | 26 | -28 | -2 | -7 | –
CC(NCc1ccccc1)c1cc(Cl)ccc1O (stereo not drawn) | 6% | 1 | 6 | -2 | -15 | 26 | -3 | –
Br.Cc1ccc(C)c(-c2csc(Nc3ccc(C)c(C)c3)n2)c1 | -1% | -10 | 21 | 5 | 39 | 48 | 28 | –
Br.CCn1c2c(c(=N)c3c1CCC3)CCCC2 | -2% | -56 | 30 | -8 | -30 | -14 | -11 | –
CC1CCN(Cc2ccc(NC(=O)c3cc4ccc5cccnc5c4[nH]3)cc2)CC1 | -1% | 9 | 23 | 17 | -14 | 3 | -7 | –
COc1cccc(NC(=O)Cn2c(C)c(C#N)c3ccccc32)c1 | 8% | 23 | 47 | 29 | -5 | 12 | -1 | –
COc1ccc(C(C)=O)cc1N1C(=O)C2C(C1=O)C1(c3ccccc3)C(=O)C2(c2ccccc2)C(c2ccc(C)cc2)=C1c1ccc(C)cc1 (stereo not drawn) | 3% | 28 | 39 | 2 | 14 | 16 | 5 | –
CCN(CC)CCCNc1ccnc2cc3ccccc3cc12 | 5% | 41 | 35 | 51 | 55 | 60 | 85 | –
Cc1cc(Nc2ccc(Cl)cc2)n2nc(C(F)(F)F)nc2n1 | 2% | 27 | 12 | 46 | -20 | 56 | -18 | –
CN(C)CCNc1cc(-c2ccccc2)nc2ccccc12 | 5% | 26 | 18 | 6 | -12 | 71 | 85 | –
N=c1n(CCN2CCCCC2)c2ccccc2n1CC(=O)c1ccc(Cl)c(Cl)c1 | 0% | -21 | 9 | -5 | 4 | -3 | -14 | –
CCCCCC(=O)N1c2ccccc2N=C2CC(c3ccc(OC)c(OC)c3)CC(O)=C2C1c1ccc(C(F)(F)F)cc1 (stereo not drawn) | 2% | 11 | 14 | 5 | -21 | 16 | -20 | –
O=C(Cc1ccccc1)NC(c1ccc(Cl)cc1)c1c(O)ccc2ccccc12 (stereo not drawn) | 3% | 11 | 23 | 18 | -8 | 2 | -16 | –
CCN(CC)c1cc(C)c2cc(NC(=O)c3cccc(OC)c3)ccc2n1 | 7% | -1 | 5 | 3 | -25 | 39 | -2 | –
COc1ccc(Nc2nc(N/N=C/c3ccc(O)cc3)nc(Nc3ccc([N+](=O)[O-])cc3)n2)cc1 | 7% | 11 | 23 | 33 | 50 | 11 | 0 | –
Oc1ccc(-c2nc(-c3ccc4oc5ccc(-c6[nH]c(-c7ccc(O)cc7)nc6-c6ccccc6)cc5c4c3)c(-c3ccccc3)[nH]2)cc1 | 1% | -2 | 46 | -12 | 17 | 56 | 89 | –
Cc1cc(C)cc(Nc2cc(C)nc3nc(C(F)(F)F)nn23)c1 | 7% | 10 | 26 | 29 | -6 | -23 | -5 | –

SMILES | inhibition [1] | % Cell Death [2] | % Cell Death [3] | % Cell Death [4] | % Cell Death [5] | % Cell Death [6] | % Cell Death [7] | inhibition [8]
Cc1ccc2cc3c(N)c4c(C)ccc(C)c4nc3nc2c1 | 5% | -9 | -14 | 46 | -5 | 18 | 31 | –
CCn1c(CN2CCN(Cc3ccccc3)CC2)nc2cc(NC(=O)c3cccs3)ccc21 | 1% | 21 | 21 | 12 | -27 | 10 | -27 | –
O=C(Nc1ccc(Br)cc1)Nc1cccc(Cl)c1 | 9% | 9 | 22 | 8 | -4 | 44 | 64 | –
COc1ccc2nc(C)cc(Nc3cccc(O)c3)c2c1.Cl | 7% | 16 | 39 | 10 | 0 | 43 | 76 | –
CCCCc1c(CCC)c(=N)c2ccccc2n1C.I | 7% | -13 | 21 | 27 | 55 | -4 | -12 | –
CCOc1cc2c(cc1OCC)C(c1cc(C)c(O)c(C)c1)NCC2.Cl (stereo not drawn) | 5% | 4 | 16 | 18 | -10 | -3 | -11 | –
Cc1ccnc(NC(c2cccc(OCc3ccccc3)c2)c2ccc3cccnc3c2O)c1 (stereo not drawn) | 1% | 19 | -12 | 49 | 37 | -16 | 27 | –
FC(F)(F)c1cccc(Nc2nc(-c3ccccc3)nc3ncccc23)c1 | 9% | 1 | -16 | 0 | 15 | 19 | -17 | –
Cl.Oc1ccccc1CNCC12CC3CC(CC(C3)C1)C2 | 3% | -8 | 15 | 20 | -11 | 37 | -2 | –
Cn1c(C(=O)c2cccc3ccccc23)nc2ccccc21 | 9% | -32 | 32 | -37 | -12 | 2 | -77 | –
Cc1ccc(NC(=O)Nc2cccc(Cl)c2)cc1F | 0% | -7 | 26 | 12 | -22 | 8 | -5 | –
COc1ccc(CN2CCN(Cc3ccccc3)CC2)c(O)c1 | -2% | 16 | -16 | -1 | 53 | 4 | 10 | –
Cc1cc(C)c2nc(N3CCC(C(=O)NCCCN4CCC(N5CCCCC5)CC4)CC3)sc2c1 | – | -8 | 8 | 5 | -20 | -39 | -37 | 1%
Clc1ccc2c(N3CCCC3)ccnc2c1 | – | 8 | 21 | 3 | 1 | 16 | -37 | 5%
O=C(Nc1cccc(C2=NCCN2)c1)Nc1cccc(C2=NCCN2)c1 [IMIDOCARB] | – | 31 | 63 | -6 | 15 | 63 | 65 | 7%
CC(C)CNC(=O)c1c(N)n(CCc2ccccc2F)c2nc3ccccc3nc12 | – | 0 | 47 | 4 | -6 | 35 | 99 | 3%
CCCCOC(=O)c1ccc(Nc2cc(C)nc3ccc(OC)cc23)cc1 | – | 32 | 30 | 16 | -10 | 21 | -45 | 0%
